Results published in patent US9951102B2, “Peptide inhibitor of Nox1 NADPH oxidase” (University of Iowa Research Foundation, priority 2014, dated 2018).
Where no end group is shown, it is not given here.

How the values were obtained:
[1] = test system: NADPH oxidase activity in VSMC membrane fractions; assay: ROS detection by lucigenin-enhanced chemiluminescence; type: cell-based, rat; conditions: 30 minute pre-incubation, 100 nM DPI or 100 μM CalC, TNF-α 10 ng/mL 10 minutes
Description: A7r5 rat aortic smooth muscle cells were seeded at 75% confluence in 10% FBS medium, infected with AdNox1GFP for 48 hours, serum-starved in 0.2% FBS medium for 24 hours. Cells were then subjected to a 30 minute pre-incubation with 100 nM DPI or 100 μM CalC or DMSO, then treated with 10 ng/mL TNF-α for 10 minutes, washed three times in cold PBS, and homogenized in Homogenization Buffer (0.25 M sucrose, 10 mM triethanolamine, 4% protease inhibitor cocktail, 0.1 M EDTA, pH 7.4) with a Tissue Tearor. Lucigenin was then added to a final concentration of 5 μM. Samples were then analyzed by a FB12 Chemiluminometer every 10 seconds for 5 minutes. Then NADPH was added to a final concentration of 100 μM and readings were taken for another 5 m. Average baseline value was subtracted from the average NADPH-stimulated value.

[2] = target: T1, NoxA1 activation domain (AD) peptide LEPMDFLGKAKVV (Homo sapiens, UniProt Q86UR1); assay: Isothermal titration calorimetry peptide interaction; type: binding; conditions: ITC, 25° C., pH 7.4, n=3 independent experiments, ± standard deviation; read-out: Affinity (Kd) for the interaction with NoxA1 AD peptide
T1 construct: purchased ProImmune
Description: The affinity of the interaction between non-phosphorylated and phosphorylated Nox1 and NoxA1 was determined by isothermal titration calorimetry (ITC). Phosphorylated or non-phosphorylated peptides corresponding to amino acids KLKTQKIYF (SEQ ID NO:9) of Nox1 and a peptide corresponding to amino acids LEPMDFLGKAKVV (SEQ ID NO:10) of NoxA1 peptides were purchased from ProImmune. The peptides were resuspended in 20 mM Na2HPO4, 100 mM […], pH 7.4 to a final concentration of 800 μM (Nox1) and 20 μM (NoxA1). The peptides were degassed and ITC measurements recorded using a MicroCal VP-ITC System (GE Healthcare). 21 injections of Nox1 peptides into NoxA1 peptide were used, with 240 s spacing between events. The chamber was kept under constant stirring at 350 rpm and all experiments were performed at 25° C. […] The constant heat of dilution, as determined by the average of the last 3-5 injections, was subtracted and the data are analyzed using the single site binding model provided in the ITC analysis package. The values for affinity and stoichiometry from three experiments were averaged and shown±standard deviation.

WT VSMC migration = assay: Transwell migration assay to TNF-α; type: cell-based, mouse; conditions: CalC pretreatment 30 minutes, 5 hours migration
Description: WT or Nox1^−/y C57 mouse aortic VSMCs were pretreated with CalC or DMSO (vehicle) for 30 minutes, washed once with PBS, and cells were detached with trypsin, which was quenched with trypsin inhibitor. Cells were transferred to a conical tube, centrifuged at 500 g for 5 minutes. The SNT was aspirated, and cells were resuspended in 125 μL cell culture medium containing no FBS. Cell counts were obtained on a Beckman Z1 Coulter Particle Counter. Cells suspensions were diluted to a concentration of 1,000 cells/μL. 50 μL of the cell suspension was added to the upper chamber of a Costar Transwell Permeable Support (8.0 μm polycarbonate membrane, 6.5 mm insert). 500 μl medium containing no FBS with or without TNF-α was added to the lower chamber. […] Cells were fixed in 4% paraformaldehyde, membranes were removed from support with a scalpel and mounted in Vectashield plus DAPI, cover-slipped and five random fields from each membrane were imaged at 20× and the number of cells migrated to the bottom of the Transwell was counted. […]
500 μL Opti-MEM was added to a 60 mm gelatin-coated cell culture plate. […] Cells were detached by use of trypsin, which was quenched in 10% FBS containing no antibiotics, centrifuged at 500 g for 5 minutes, resuspended in 5 mL 10% FBS without antibiotics and counted. […] Cells were then prepared for analysis by WB, DCF fluorescence or migration assay.

[3] = test system: Nox1 phosphorylation in A7r5 rat aortic VSMCs; assay: TNF-α-stimulated Nox1 phosphorylation, anti-p22phox IP / anti-STY Western blot, A7r5 VSMCs; type: cell-based; conditions: CalC pretreatment 100 nM, TNF-α 10 ng/mL 10 minutes
Description: Equal volumes of samples were pre-cleared with Protein G Dynabeads (10 μL/1.5 mg protein in lysate) for 30 minutes at 4° C., end-over-end rotation, followed by a quick spin at high speed, then placed on a magnetic rack for 1 minute. SNT was removed to a new tube on ice. The p22^phox/Nox1 complex was immunoprecipitated using anti-p22^phox antibody C-17 (1 μg/500 μg protein in lysate) and rotated for 45 minutes at 4° C. (Hanna et al., 2004). Next, 20 μL Protein G Dynabeads was added to each sample and rotated for 20 minutes at 4° C., followed by a quick spin at high speed, then placed on a magnetic rack 1 m. SNT was moved to a new tube on ice and frozen for later analysis. The Dynabead pellet was washed three times with 200 μL NP40 buffer, followed by addition of 15 μL twice with sample buffer (4% SDS, 20% glycerol, 10% 2-mercaptoethanol, 0.004% bromphenol blue, 0.125 M Tris HCl, pH 6.8). […] Samples were then analyzed by WB.
One quarter volume of 5× sample buffer (6 g SDS, 40% glycerol, 30% 2-mercaptoethanol, 383.3 mg dithiothreitol, 372 mg EDTA, 378.3 mg Tris, 50 mg bromphenol blue in 50 ml ddH2O, pH 6.8) was added to lysates. […] Phosphorylation of Nox1 residues was determined utilizing a phospho-serine/threonine/tyrosine (p-STY) antibody that reacts with these residues only under phosphorylated conditions (Zhang et al., 2010, Chen et al., 2006). […]

[4] = test system: TNF-α-induced Nox1-dependent ROS production in WT VSMCs; assay: ROS detection by CM-H2DCF fluorescence in VSMCs; type: cell-based, mouse; conditions: CalC pretreatment, TNF-α 10 ng/mL 30 minutes
Description: C57 WT or Nox1^−/y VSMCs were seeded on glass chamber slides at 75% confluence, serum-starved in cell culture medium containing no FBS for 24 h, washed in phenol red-free DMEM, and incubated in 10 μM CM-H2DCFDA for 30 m, pretreated with CalC or DMSO, and treated with 10 ng/mL TNF-α for 30 minutes. The cells were then washed 3×100 μL cold PBS, fixed with 2% paraformaldehyde for 15 minutes, washed twice with PBS, incubated in 1 μM To-Pro-3 for 5 minutes in dark, and washed twice with PBS. The chambers were removed and cells were mounted in Vectashield and imaged by confocal microscopy.
500 μL Opti-MEM was added to a 60 mm gelatin-coated cell culture plate. To this siPKC-β or siControl was added (final concentration 200 nM), plus 12 μL RNAiMax. Plates were rocked and incubated for 20 minutes. Cells were detached by use of trypsin, which was quenched in 10% FBS containing no antibiotics, centrifuged at 500 g for 5 minutes, resuspended in 5 mL 10% FBS without antibiotics and counted. Cells were added to plate for a seeding density of 75%, and medium was added to a final volume of 3 mL. Cells were incubated for 5 hours at 37° C., then medium was changed to 10% FBS. The next day, cells were serum starved in medium containing no FBS for 24 hours. Cells were then prepared for analysis by WB, DCF fluorescence or migration assay.

Row | Kd [2] | Compound | TNF-α-primed NADPH oxidase activity (lucigenin-enhanced chemiluminescence) [1] | Migration of WT VSMCs to TNF-α (WT VSMC migration) | TNF-α-stimulated Nox1 phosphorylation [3] | Nox1-dependent ROS production (CM-H2DCF fluorescence) [4]
1 | – | [Cl-].c1ccc2c(c1)[I+]c1ccccc1-2 [DPI, Diphenyleneiodoium chloride] | completely abolished | – | – | –
2 | > 100 µM | KLKTQKIYF [Nox1 peptide, KLKTQKIYF] | – | – | – | –
3 | – | COc1c(C[C@@H](C)OC(=O)Oc2ccc(O)cc2)c2c3c(C[C@@H](C)OC(=O)c4ccccc4)c(OC)c(=O)c4c(O)cc(OC)c(c5c(OC)cc(O)c(c1=O)c52)c43 [CalC, Calphostin C] | completely abolished | blocked | inhibited | abrogated
